Common to all, as to test: Kinase selectivity, DiscoverX scanMAX Kinase assay panel (% control)
Holding throughout (format): binding

Assay [1] concerns the target T1, kinases of the scanMAX Kinase assay panel (Homo sapiens, UniProt P49137).
T1 construct: purchased DiscoverX Co. (contract measurement) scanMAX Kinase assay panel
Particulars: MAPKAPK2; 1 uM. Put shortly:
(§1)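 Compounds were tested at 1 uM (in DMSO) against each panel kinase. % control was calculated as (compound − positive control)/(negative control − positive control)×100, where the positive control gives 0% and DMSO gives 100%. Activity toward a kinase was called at % control <35%.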

Assay [2] concerns the target T2, kinases of the scanMAX Kinase assay panel (Homo sapiens, UniProt Q8IY84).
T2 construct: purchased DiscoverX Co. (contract measurement) scanMAX Kinase assay panel
Particulars: NIM1; 1 uM. Put shortly:
as §1

For assay [3], the target named is T3, kinases of the scanMAX Kinase assay panel (Homo sapiens, UniProt O94768).
T3 construct: purchased DiscoverX Co. (contract measurement) scanMAX Kinase assay panel
T3 sequence (O94768 1-372): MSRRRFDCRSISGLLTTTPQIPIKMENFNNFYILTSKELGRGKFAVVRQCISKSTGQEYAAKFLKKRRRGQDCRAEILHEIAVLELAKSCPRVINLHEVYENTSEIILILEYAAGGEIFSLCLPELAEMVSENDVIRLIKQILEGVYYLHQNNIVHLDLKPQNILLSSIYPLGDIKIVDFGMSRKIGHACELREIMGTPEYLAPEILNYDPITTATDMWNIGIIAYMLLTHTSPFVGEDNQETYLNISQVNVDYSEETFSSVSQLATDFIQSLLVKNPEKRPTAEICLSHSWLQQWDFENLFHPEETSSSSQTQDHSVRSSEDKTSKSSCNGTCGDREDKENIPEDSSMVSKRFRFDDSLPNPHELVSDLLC
Particulars: DRAK2; 1 uM. Put shortly: as §1

The target of assay [4] is T4, kinases of the scanMAX Kinase assay panel (Homo sapiens, UniProt Q9Y6R4).
T4 construct: purchased DiscoverX Co. (contract measurement) scanMAX Kinase assay panel
T4 sequence (Q9Y6R4 whole entry): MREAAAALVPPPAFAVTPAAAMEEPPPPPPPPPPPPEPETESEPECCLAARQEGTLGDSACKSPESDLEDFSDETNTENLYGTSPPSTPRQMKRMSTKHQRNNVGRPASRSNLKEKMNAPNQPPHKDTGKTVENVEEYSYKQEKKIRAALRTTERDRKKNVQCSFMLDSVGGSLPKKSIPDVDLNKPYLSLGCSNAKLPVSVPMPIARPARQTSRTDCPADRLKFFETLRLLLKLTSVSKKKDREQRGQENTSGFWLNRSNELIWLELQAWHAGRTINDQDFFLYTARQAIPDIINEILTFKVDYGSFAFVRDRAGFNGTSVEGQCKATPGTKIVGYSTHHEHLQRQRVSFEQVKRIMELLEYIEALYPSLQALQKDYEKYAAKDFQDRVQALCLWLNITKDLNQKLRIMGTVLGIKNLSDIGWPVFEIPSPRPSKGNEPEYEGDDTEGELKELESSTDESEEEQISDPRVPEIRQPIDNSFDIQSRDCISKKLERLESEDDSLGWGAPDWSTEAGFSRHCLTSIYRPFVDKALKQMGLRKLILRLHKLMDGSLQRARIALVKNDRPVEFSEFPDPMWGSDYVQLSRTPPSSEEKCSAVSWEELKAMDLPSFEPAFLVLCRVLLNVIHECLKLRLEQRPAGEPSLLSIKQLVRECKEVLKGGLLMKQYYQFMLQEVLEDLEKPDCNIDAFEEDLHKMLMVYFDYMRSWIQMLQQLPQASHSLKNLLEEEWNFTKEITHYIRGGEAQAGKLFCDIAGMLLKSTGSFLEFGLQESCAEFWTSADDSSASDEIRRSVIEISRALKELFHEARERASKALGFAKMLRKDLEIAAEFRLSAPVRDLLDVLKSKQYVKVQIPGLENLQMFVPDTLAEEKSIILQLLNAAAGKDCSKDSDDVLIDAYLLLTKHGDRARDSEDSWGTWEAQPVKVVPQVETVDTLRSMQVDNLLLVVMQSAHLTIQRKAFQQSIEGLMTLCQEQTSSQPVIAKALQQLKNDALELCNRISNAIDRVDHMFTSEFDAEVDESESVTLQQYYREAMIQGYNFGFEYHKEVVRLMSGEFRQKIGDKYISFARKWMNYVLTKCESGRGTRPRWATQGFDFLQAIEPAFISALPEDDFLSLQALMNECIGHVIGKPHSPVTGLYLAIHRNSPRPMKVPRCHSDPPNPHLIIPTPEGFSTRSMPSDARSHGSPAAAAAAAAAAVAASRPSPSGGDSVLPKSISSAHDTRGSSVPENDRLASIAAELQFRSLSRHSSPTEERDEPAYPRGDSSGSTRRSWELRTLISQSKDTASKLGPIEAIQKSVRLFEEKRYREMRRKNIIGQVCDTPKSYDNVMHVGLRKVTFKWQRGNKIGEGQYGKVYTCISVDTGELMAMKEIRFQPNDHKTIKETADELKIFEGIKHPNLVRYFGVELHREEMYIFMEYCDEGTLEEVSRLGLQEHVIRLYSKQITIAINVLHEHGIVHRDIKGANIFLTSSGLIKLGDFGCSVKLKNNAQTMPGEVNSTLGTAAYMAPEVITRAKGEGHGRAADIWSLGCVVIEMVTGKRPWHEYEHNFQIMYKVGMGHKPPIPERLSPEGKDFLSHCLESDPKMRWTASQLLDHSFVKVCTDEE
The note with it: MAP3K4; 1 uM. In a few lines:
as §1

In assay [5] the target is T5, kinases of the scanMAX Kinase assay panel (Homo sapiens, UniProt P17612).
T5 construct: purchased DiscoverX Co. (contract measurement) scanMAX Kinase assay panel
Particulars: PKAC-alpha; 1 uM. Put shortly: as §1

The target of assay [6] is T6, kinases of the scanMAX Kinase assay panel (Homo sapiens, UniProt Q9H4B4).
T6 construct: purchased DiscoverX Co. (contract measurement) scanMAX Kinase assay panel
The note with it: PLK3; 1 uM. Put shortly:
as §1

The target of assay [7] is T7, kinases of the scanMAX Kinase assay panel (Homo sapiens, UniProt Q8NI60).
T7 construct: purchased DiscoverX Co. (contract measurement) scanMAX Kinase assay panel
T7 sequence (Q8NI60 163-647): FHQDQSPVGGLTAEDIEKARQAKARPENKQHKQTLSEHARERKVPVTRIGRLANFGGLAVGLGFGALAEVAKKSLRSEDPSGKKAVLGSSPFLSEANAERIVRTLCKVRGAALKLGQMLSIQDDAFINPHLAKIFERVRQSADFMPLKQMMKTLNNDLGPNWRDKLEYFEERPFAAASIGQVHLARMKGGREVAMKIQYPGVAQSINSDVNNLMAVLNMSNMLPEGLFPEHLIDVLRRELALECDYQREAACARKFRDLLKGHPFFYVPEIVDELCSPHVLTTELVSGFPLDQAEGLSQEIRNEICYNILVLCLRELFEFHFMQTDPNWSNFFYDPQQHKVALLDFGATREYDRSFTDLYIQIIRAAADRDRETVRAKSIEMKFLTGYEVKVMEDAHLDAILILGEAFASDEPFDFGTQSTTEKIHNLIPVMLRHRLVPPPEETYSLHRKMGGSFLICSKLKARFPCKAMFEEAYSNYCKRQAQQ
Particulars: ADCK3; 1 uM. In a few lines: as §1

Assay [8] deals with T8, kinases of the scanMAX Kinase assay panel (Homo sapiens, UniProt O00750).
T8 construct: purchased DiscoverX Co. (contract measurement) scanMAX Kinase assay panel
T8 sequence (O00750 whole entry): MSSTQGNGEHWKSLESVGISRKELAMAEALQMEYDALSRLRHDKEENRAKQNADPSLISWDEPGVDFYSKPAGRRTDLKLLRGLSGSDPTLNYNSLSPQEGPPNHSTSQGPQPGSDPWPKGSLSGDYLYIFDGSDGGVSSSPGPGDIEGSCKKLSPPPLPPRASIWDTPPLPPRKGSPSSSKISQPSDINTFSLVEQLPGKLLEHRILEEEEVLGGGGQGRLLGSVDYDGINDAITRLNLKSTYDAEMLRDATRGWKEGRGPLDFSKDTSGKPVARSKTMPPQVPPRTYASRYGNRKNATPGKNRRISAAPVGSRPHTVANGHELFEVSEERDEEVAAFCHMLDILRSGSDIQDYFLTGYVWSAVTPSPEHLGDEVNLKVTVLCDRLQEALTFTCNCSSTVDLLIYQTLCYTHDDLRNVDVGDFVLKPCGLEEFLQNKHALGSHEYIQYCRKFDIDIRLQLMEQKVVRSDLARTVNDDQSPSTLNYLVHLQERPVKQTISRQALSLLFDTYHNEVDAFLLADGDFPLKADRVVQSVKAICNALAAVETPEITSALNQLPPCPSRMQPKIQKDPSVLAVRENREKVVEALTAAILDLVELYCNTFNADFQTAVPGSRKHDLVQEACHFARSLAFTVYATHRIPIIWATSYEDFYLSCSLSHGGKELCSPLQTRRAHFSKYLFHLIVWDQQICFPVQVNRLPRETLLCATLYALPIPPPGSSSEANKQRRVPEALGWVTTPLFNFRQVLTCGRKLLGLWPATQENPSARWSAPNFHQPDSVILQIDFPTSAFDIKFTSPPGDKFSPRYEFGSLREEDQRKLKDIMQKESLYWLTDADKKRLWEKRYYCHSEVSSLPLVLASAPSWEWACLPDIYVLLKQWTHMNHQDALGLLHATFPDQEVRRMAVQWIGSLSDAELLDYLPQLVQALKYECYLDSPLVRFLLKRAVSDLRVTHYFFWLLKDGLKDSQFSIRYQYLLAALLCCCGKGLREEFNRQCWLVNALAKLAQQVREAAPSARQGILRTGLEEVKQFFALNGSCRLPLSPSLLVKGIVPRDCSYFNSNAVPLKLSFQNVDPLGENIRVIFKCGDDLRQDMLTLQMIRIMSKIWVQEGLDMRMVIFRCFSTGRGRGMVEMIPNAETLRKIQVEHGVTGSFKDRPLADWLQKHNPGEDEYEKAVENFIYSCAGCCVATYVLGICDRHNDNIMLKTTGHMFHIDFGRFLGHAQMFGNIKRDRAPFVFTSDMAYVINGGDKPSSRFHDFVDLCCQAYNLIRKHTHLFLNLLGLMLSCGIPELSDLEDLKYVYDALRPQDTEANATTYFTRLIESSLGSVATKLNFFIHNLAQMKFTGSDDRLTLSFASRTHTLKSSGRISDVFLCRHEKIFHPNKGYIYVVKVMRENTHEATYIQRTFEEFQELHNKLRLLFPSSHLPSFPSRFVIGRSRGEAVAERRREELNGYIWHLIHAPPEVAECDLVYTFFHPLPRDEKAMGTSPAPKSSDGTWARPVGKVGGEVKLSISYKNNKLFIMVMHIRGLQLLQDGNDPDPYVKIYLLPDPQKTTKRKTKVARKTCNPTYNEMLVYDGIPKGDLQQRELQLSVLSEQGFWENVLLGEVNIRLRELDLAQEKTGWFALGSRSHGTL
The note with it: PIK3C2B; 1 uM. In a few lines: as §1

Assay [9] addresses T9, kinases of the scanMAX Kinase assay panel (Homo sapiens, UniProt Q9NRP7).
T9 construct: purchased DiscoverX Co. (contract measurement) scanMAX Kinase assay panel
T9 sequence (Q9NRP7 1-1315): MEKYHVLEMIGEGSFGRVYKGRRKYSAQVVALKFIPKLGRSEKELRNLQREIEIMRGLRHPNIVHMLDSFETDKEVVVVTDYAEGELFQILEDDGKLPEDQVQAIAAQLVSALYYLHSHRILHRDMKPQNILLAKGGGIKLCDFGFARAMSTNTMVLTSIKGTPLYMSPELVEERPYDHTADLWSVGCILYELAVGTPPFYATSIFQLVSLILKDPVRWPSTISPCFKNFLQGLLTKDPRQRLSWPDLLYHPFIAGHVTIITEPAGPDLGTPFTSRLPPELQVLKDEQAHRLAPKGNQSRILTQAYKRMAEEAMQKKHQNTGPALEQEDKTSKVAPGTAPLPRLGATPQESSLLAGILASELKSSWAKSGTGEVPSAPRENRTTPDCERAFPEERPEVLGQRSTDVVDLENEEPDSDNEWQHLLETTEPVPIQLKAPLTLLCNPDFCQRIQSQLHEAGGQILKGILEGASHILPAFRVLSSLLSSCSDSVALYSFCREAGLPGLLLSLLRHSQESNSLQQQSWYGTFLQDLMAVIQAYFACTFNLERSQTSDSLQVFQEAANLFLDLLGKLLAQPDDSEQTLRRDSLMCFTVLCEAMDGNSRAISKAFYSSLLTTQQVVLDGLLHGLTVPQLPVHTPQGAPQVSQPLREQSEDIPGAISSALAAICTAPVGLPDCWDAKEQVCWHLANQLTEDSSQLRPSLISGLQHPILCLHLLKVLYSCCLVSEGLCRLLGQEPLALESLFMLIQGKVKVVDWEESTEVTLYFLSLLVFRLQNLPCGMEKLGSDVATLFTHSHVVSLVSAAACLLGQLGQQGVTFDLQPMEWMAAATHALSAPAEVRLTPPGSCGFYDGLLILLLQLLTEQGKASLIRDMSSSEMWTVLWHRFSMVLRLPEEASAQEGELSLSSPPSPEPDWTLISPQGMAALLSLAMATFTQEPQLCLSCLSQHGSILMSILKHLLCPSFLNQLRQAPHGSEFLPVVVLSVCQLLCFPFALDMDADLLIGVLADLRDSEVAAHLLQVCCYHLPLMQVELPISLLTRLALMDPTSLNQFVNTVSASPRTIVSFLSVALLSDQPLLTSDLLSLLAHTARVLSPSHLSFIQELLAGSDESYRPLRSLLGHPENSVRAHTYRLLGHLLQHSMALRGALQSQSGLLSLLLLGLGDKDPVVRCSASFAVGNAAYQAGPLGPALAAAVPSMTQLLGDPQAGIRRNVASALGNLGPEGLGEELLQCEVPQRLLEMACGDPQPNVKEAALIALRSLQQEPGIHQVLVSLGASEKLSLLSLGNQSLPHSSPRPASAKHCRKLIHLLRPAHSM
Particulars: kinase STK36; 1 uM in DMSO. In a few lines:
as §1

T2 sequence (Q8IY84 whole entry): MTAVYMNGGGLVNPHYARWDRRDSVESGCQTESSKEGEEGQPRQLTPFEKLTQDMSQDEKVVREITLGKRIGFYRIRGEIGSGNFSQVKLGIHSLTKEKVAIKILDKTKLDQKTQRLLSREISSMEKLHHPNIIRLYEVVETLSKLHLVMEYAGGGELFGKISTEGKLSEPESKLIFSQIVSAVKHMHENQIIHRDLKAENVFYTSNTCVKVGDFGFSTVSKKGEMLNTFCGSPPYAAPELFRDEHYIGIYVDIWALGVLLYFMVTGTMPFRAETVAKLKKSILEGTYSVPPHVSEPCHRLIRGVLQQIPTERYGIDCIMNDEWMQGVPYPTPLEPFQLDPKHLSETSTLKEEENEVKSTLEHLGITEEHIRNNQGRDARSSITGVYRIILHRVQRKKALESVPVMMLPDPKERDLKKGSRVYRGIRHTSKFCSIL
T1 sequence (P49137 whole entry): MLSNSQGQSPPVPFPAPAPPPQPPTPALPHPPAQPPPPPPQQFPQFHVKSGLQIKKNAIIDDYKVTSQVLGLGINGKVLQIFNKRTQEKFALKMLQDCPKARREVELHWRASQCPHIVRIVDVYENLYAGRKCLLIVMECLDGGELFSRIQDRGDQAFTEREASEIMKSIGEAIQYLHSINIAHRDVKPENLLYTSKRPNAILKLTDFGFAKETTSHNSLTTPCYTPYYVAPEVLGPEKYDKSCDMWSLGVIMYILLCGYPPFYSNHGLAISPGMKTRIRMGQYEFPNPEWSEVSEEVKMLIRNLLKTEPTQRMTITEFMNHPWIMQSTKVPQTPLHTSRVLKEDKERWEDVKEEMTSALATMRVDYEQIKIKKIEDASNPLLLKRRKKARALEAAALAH

Consider `CNc1nc(Nc2ccc(C(=O)N3CCOCC3)cc2OC)nc2[nH]cc(C#N)c12` [Example 1, 2-((2-methoxy-4-(morpholine-4-carbonyl)phenyl)amino)-4-(methylamino)-7H-pyrrolo[2,3-d]pyrimidine-5-carbonitrile], for which the remaining binding at 1 µM is 4.6% in [1]; 77% in [2]; 13% in assay [3]; 100% in [4]; 100% in assay [5]; 57% in assay [6]. The remaining binding at 1 µM in assay [7] came to 94%; in assay [8] it was 89%; in assay [9], 97%.

Consider `CC1(Nc2nc(Nc3cnn([C@H]4CCN(C5COC5)C[C@@H]4F)c3Cl)nc3[nH]cc(C#N)c23)CC1` [Example 52, 2-((5-chloro-1-((3S,4S)-3-fluoro-1-(oxetane-3-yl)piperidine-4-yl)-1H-pyrazole-4-yl)amino)((1-methylcyclopropyl)amino)-7H-pyrrolo[2,3-d]pyrimidine-5-carbonitrile], for which the remaining binding at 1 µM in [1] was 70%; in assay [2], 100%; in [3], 1.2%; in assay [4], 77%; in assay [5], 100%; in [6], 99%. Also, the remaining binding at 1 µM in assay [7] came to 98%; in [8], 91%; in assay [9], 85%.

Consider `CCNc1nc(Nc2ccc(C(=O)N3CCC(N4CCOCC4)CC3)cc2OC)nc2[nH]cc(C(F)(F)F)c12` [Example 104, (4-((4-(ethylamino)-5-(trifluoromethyl)-7H-pyrrolo[2,3-d]pyrimidine-2-yl)amino)-3-methoxyphenyl)(4-morpholinopiperidine-1-yl)methanone], for which the remaining binding at 1 µM in assay [1] amounted to 24%; in assay [2] it was 100%; in assay [3] it was 15%; in assay [4], 97%; in assay [5], 100%; in assay [6], 89%. Also, the remaining binding at 1 µM came to 100% in assay [7], 75% in [8] and 100% in assay [9].

Values taken from patent publication US11208412B2 (DAEGU-GYEONGBUK MEDICAL INNOVATION FOUNDATION, priority 2017, dated 2021).
